Experiments:
[1] = system: Bifidobacterium spp. (12 strains); assay: Bacterial growth assay (OD600), all bifidobacteria strains tested; format: cell-based; details: carbohydrate 1% in sMRS+cysteine
Method: (§1) Subsequently, the cultures are passed twice on a semi-synthetic MRS medium ([…] which is supplemented with 1% (w/v) filter-sterilized glucose as the sole carbohydrate source. […] [table] After the 2nd pass in sMRS+glucose+cysteine, the cultures are washed once with 10 mL of sterile sMRS+cysteine (no carbohydrate), resuspended in 10 ml of sterile sMRS+ cysteine (no carbohydrate) and then used as a 1% inoculum. […] Cell growth is performed in 250 uL of sMRS+cysteine covered with 50 uL of mineral oil in a Bioscreen 100-well Honeycomb plate. Cell growth is monitored by measuring optical density at 600 nm (OD600) using a Bioscreen C Automated Microbiology Growth Curve Analysis System. The plate reader is operated in discontinuous mode, with absorbance readings performed in 30-minute intervals, and preceded by 30-second shaking intervals at maximum speed. Controls consist of inoculated medium lacking carbohydrate. […] All three plates include a positive control (glucose) and negative control (no carbohydrate). The OD600 data for each carbohydrate is corrected by subtracting the OD600 of the basal media (sMRS)+cysteine from the sample plate for each probiotic. Maximum OD is determined by inspection of the corrected growth data. OD is determined by subtracting the initial corrected OD (time point 0) from the maximum corrected OD. Samples are grown in biologically independent triplicates and the resulting growth kinetic data are expressed as the mean of these replicates. For the growth curve plots, OD600 vs. time is first plotted for the bacteria grown on medium lacking carbohydrate (sMRS). For all other carbohydrates, the OD600 data is corrected by subtracting the OD600 of sMRS.

B. breve ATCC 15700 = assay: Bacterial growth assay (OD600); format: cell-based, Bifidobacterium breve; details: carbohydrate 1% in sMRS+cysteine
Method: as §1, with “The OD600 data for each carbohydrate is corrected by subtracting the OD600 of the basal media (sMRS)+cysteine from the sample plate for each probiotic.” left out, “For the growth curve plots, OD600 vs. time is first plotted for the bacteria grown on medium lacking carbohydrate (sMRS). For all other carbohydrates, the OD600 data is corrected by subtracting the OD600 of sMRS.” left out

Caco-2 cells [2] = assay: Sucrase activity in Caco-2 cells; format: cell-based, human; details: 72 hours, various levels
HT-29 cells = assay: Alkaline phosphatase activity in HT-29 cells (cell differentiation); details: 72 hours
enteric nerve cells = assay: Peristalsis model using luminally perfused mouse colon
Method: In this Example, the effect of 2′-fucosyllactose (2′FL) or 3′-fucosyllactose (3′FL) on stimulating enteric nerve cells in the gastrointestinal tract of rodents is analyzed.
Specifically, a peristalsis model using luminally perfused mouse colon is used to test the stimulation effect of 2′FL or 3′FL on enteric nerve cells. Colon muscle is perfused with 2′FL or 3′FL, at concentrations of 1 mg/mL, 0.5 mg/mL, and 0.1 mg/mL, for 15 minutes. The frequency and amplitude of contractions of the muscle is analyzed.

B. infantis M-63 = assay: Bacterial growth assay (OD600); format: cell-based, Bifidobacterium infantis; details: carbohydrate 1% in sMRS+cysteine
Method: as §1

B. infantis ATCC 15697 = assay: Bacterial growth assay (OD600); format: cell-based, Bifidobacterium infantis; details: carbohydrate 1% in sMRS+cysteine
Method: as §1

Caco-2 cells [3] = assay: Alkaline phosphatase activity in Caco-2 cells (cell differentiation); details: 72 hours, LNnT or 2′FL 20-2000 mg/L, 6′SL 40-4000 mg/mL
[4] = system: diluted feces of infants (fecal inoculum); assay: In vitro fermentation model simulating large bowel fermentation, infant fecal inoculum (pH, SCFA, fermentation rate); format: cell-based; details: for pH change from baseline: at 3, 6, and 12 h after inoculation, compared among substrates
Caco-2 cells [5] = assay: Transepithelial resistance of Caco-2 cells (Ussing chambers); format: cell-based, human; details: more mature Caco-2 cells
Source text: FIGS. 20-22 illustrate the effect of LNnT, 2′FL, and 6′SL on cell resistance (transepithelial resistance), which is a marker for epithelial barrier function, wherein a higher resistance is associated with a higher barrier function. Epithelial cell resistance or barrier function is a measure of differentiated epithelial cell function. Specifically, as the cells mature, tighter junctions between the cells are formed resulting in a stronger epithelial cell barrier. This barrier prevents the movement of large molecules, bacteria, or viruses from one side of the barrier to the other, which could improve resistance to infection, sepsis, and NEC. […] Transepithelial resistance was measured using Transwell Snapwell inserts containing the desired cell culture and were transferred to modified Ussing chambers and bathed in modified Kreb's solution at 37 C with 95% oxygen and 5% carbon dioxide. Transepithelial resistance was measured as the passive transport of ions across the monolayers.

[6] = colon muscle perfused at 1, 0.5 and 0.1 mg/mL for 15 minutes
[7] = LNnT 20-2000 mg/L, 6′SL 40-4000 mg/mL

SMILES | growth / ability to ferment (OD600) [1] | sucrase activity per milligram of protein (Caco-2 cells [2]) | growth / ability to ferment (OD600) (B. infantis M-63) | growth / ability to ferment (OD600) (B. infantis ATCC 15697) | alkaline phosphatase activity (Caco-2 cells [3]) | fermentation rate [4] | further results
CC(=O)N[C@H]1C(O)O[C@H](CO)[C@@H](O)[C@@H]1O (stereo partly drawn) [NAG, N-acetyl-D-glucosamine, reference compound] | Only B. breve ATCC 15700 is able to ferment |  |  |  |  |  | growth / ability to ferment (OD600) (B. breve ATCC 15700): able to ferment
C[C@@H]1O[C@@H](O[C@H]2[C@H](O[C@H]3[C@H](O)[C@@H](O)C(O)O[C@@H]3CO)O[C@H](CO)[C@H](O)[C@@H]2O)[C@@H](O)[C@H](O)[C@@H]1O (stereo partly drawn) [2′FL, 2′-a-L-Fucopyranosyl-D-Lactose] | Only B. infantis ATCC 15697 and B. infantis M-63 are able to ferment | trend toward sucrase activity | able to ferment | able to ferment | trend toward increased alkaline phosphatase activity | about 4,872 i·tg/g of dry matter/hour | alkaline phosphatase activity per milligram of protein (HT-29 cells; at the high dose (2000 mg/L)): significant increase in alkaline phosphatase activity; amplitude of contraction (enteric nerve cells; [6]): reduced consistently and in a dose response fashion; frequency of contraction (enteric nerve cells; [6]): reduced consistently and in a dose response fashion; stimulation of nerve cells (enteric nerve cells; without involving gut microbiota and/or their metabolites): direct stimulation of nerve cells; pH change from baseline [4]: greatest
C[C@H](O)[C@@H](O)[C@@H](O)[C@H](O)C=O [L-fucose, L-(−) Fucose, reference compound] | None of the bifidobacteria are able to ferment |  | not able to ferment | not able to ferment |  |  | 
CC(=O)N[C@H]1[C@H](O[C@H]2[C@@H](O)[C@@H](CO)O[C@@H](O[C@H]3[C@H](O)[C@@H](O)C(O)O[C@@H]3CO)[C@@H]2O)O[C@H](CO)[C@@H](O[C@@H]2O[C@H](CO)[C@H](O)[C@H](O)[C@H]2O)[C@@H]1O (mixture of isomers) [LNnT, Lacto-N-neotetraose] |  | no apparent effect | grow well | grow well | trend toward an increase | about 4,488 i·tg/g of dry matter/hour | alkaline phosphatase activity per milligram of protein (HT-29 cells; [7]): trend toward an increase; cell resistance (transepithelial resistance) (Caco-2 cells [5]): positive effect on cell resistance; growth / ability to ferment (OD600) (B. breve ATCC 15700): grow well; pH change from baseline [4]: greatest
O=C(CO)[C@@H](O)[C@H](O)[C@H](O)CO [fructose, D-Fructose] | majority of bifidobacteria is able to ferment |  |  |  |  |  | 
CC(=O)N[C@H]1[C@H]([C@H](O)[C@H](O)CO)O[C@@](O[C@H]2[C@@H](O)[C@@H](CO)O[C@@H](O[C@H]3[C@H](O)[C@@H](O)C(O)O[C@@H]3CO)[C@@H]2O)(C(=O)O)C[C@@H]1O (some centres unmarked) [3′SL, 3′-sialyllactose] | Only B. infantis ATCC 15697 and B. infantis M-63 are able to ferment |  | able to ferment | able to ferment |  |  | 
CC(=O)N[C@H]1C([C@H](O)[C@H](O)CO)O[C@@](OCC2O[C@@H](O[C@@H]3C(CO)OC(O)C(O)[C@H]3O)C(O)[C@@H](O)[C@H]2O)(C(=O)[O-])C[C@H]1O.[Na+] (some centres unmarked) [6′SL, a-(2-6′)-N-Acetylneuraminyl-lactose sodium salt] | Only B. infantis ATCC 15697 and B. infantis M-63 are able to ferment | no apparent effect | able to ferment | able to ferment | no apparent effect | about 1,809 i·tg/g of dry matter/hour | alkaline phosphatase activity per milligram of protein (HT-29 cells; [7]): no apparent effect; total SCFA production ([4]; 12 h of fermentation): greater (P<0.05) for the 6′SL and GOS substrates compared to 2′FL; total SCFA production ([4]; after 3 and 6 h of fermentation): lower (P<0.05) with 6′SL compared to GOS
CC(=O)N[C@H]1[C@H]([C@H](O)[C@H](O)CO)OC(O)(C(=O)O)C[C@@H]1O (some centres unmarked) [sialic acid, N-acetylneuraminic acid, reference compound] | None of the bifidobacteria are able to ferment |  | not able to ferment | not able to ferment |  |  | 
